According to patent publication US11608323B2 (SYNGENTA LIMITED, priority 2013, dated 2023):

What was measured:
Type in all cases: in vivo
ABUTH [1] = assay: Pre-emergence herbicidal activity, glasshouse pot test; conditions: rate 1000 g/Ha, evaluated after 13 days, scale 0-5
In short: (§1)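 Sow in pots of standard soil; after one day under glasshouse conditions, spray compound (acetone/water 50:50 formulation, 0.5% Tween 20, diluted in water). Grow on at 24/16 °C, 14 h light, 65% humidity with twice-daily watering. Assess at 13 days, 0–5 damage scale.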

ALOMY [2] = assay: as above; conditions: rate 1000 g/Ha, evaluated after 13 days, scale 0-5
In short: as §1

AMARE [3] = assay: as above; conditions: rate 1000 g/Ha, evaluated after 13 days, scale 0-5
In short: as §1

ECHCG [4] = assay: as above; conditions: rate 1000 g/Ha, evaluated after 13 days, scale 0-5
In short: as §1

SETFA [5] = assay: as above; conditions: rate 1000 g/Ha, evaluated after 13 days, scale 0-5
In short: as §1

ZEAMX [6] = assay: as above; conditions: rate 1000 g/Ha, evaluated after 13 days, scale 0-5
In short: as §1

ABUTH [7] = assay: Post-emergence herbicidal activity, glasshouse pot test; conditions: Abutilon theophrasti; application post-emergence; rate 1000 g/Ha; evaluated after 13 days
In short: (§2)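 Visual herbicidal injury (0 = no damage, 5 = plant killed) recorded 13 days post-treatment. Treatment consisted of a single spray onto emerged seedlings at day 8; conditions before and after were 24/16 °C, 14 h light, 65% humidity.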

ALOMY [8] = assay: as above; conditions: Alopecurus myosuroides; application post-emergence; rate 1000 g/Ha; evaluated after 13 days
In short: as §2

AMARE [9] = assay: as above; conditions: Amaranthus retroflexus; application post-emergence; rate 1000 g/Ha; evaluated after 13 days
In short: as §2

ECHCG [10] = assay: as above; conditions: Echinochloa crus-galli; application post-emergence; rate 1000 g/Ha; evaluated after 13 days
In short: as §2

SETFA [11] = assay: as above; conditions: Setaria faberi; application post-emergence; rate 1000 g/Ha; evaluated after 13 days
In short: as §2

ZEAMX [12] = assay: as above; conditions: Zea mays; application post-emergence; rate 1000 g/Ha; evaluated after 13 days
In short: as §2

| SMILES | ABUTH damage score, application pre-emergence (ABUTH [1]) | ALOMY damage score, application pre-emergence (ALOMY [2]) | AMARE damage score, application pre-emergence (AMARE [3]) | ECHCG damage score, application pre-emergence (ECHCG [4]) | SETFA damage score, application pre-emergence (SETFA [5]) | ZEAMX damage score, application pre-emergence (ZEAMX [6]) | Post-emergence herbicidal activity ABUTH (damage score 0-5) (ABUTH [7]) | Post-emergence herbicidal activity ALOMY (damage score 0-5) (ALOMY [8]) | Post-emergence herbicidal activity AMARE (damage score 0-5) (AMARE [9]) | Post-emergence herbicidal activity ECHCG (damage score 0-5) (ECHCG [10]) | Post-emergence herbicidal activity SETFA (damage score 0-5) (SETFA [11]) | Post-emergence herbicidal activity ZEAMX (damage score 0-5) (ZEAMX [12]) |
| --- | --- | --- | --- | --- | --- | --- | --- | --- | --- | --- | --- | --- |
| CC1C(O)N(c2cc(C(F)(F)F)c(-c3cncnc3)cn2)C(=O)N1C (stereo not drawn) [Compound A11] | 5 | 4 | 5 | 4 | 5 | 3 | 5 | 4 | 5 | 5 | 5 | 4 |
| COc1cnc(N2C(=O)N(C)C(C)C2O)cc1C(F)(F)F (stereo not drawn) [Compound A12, 5-hydroxy-1-[5-methoxy-4-(trifluoromethyl)-2-pyridyl]-3,4-dimethyl-imidazolidin-2-one] | 5 | 4 | 5 | 5 | 5 | 3 | 5 | 5 | 5 | 5 | 5 | 5 |
| CCOC1C(O)N(c2cc(C(F)(F)F)c(-c3ccccc3)cn2)C(=O)N1C (stereo not drawn) [Compound A13] | 5 | 3 | 5 | 3 | 3 | 1 | 5 | 4 | 5 | 5 | 5 | 0 |
| CC1C(O)N(c2cc(C(F)(F)F)ccn2)C(=O)N1C (stereo not drawn) [Compound A19, 4-hydroxy-1,5-dimethyl-3-[4-(trifluoromethyl)-2-pyridyl]imidazolidin-2-one] | 5 | 4 | 5 | 5 | 5 | 3 | 5 | 5 | 5 | 5 | 5 | 4 |
| COc1cncc(-c2cnc(N3C(=O)N(C)C(C)C3O)cc2C(F)(F)F)c1 (stereo not drawn) [Compound A20] | 5 | 4 | 5 | 4 | 5 | 5 | 5 | 5 | 5 | 5 | 5 | 4 |
| COc1ccc(-c2cnc(N3C(=O)N(C)C(C)C3O)cc2C(F)(F)F)cn1 (stereo not drawn) [Compound A21] | 5 | 3 | 5 | 5 | 5 | 2 | 5 | 5 | 5 | 5 | 5 | 3 |
| COc1ncc(-c2cnc(N3C(=O)N(C)C(C)C3O)cc2C(F)(F)F)cn1 (stereo not drawn) [Compound A22] | 5 | 4 | 5 | 5 | 5 | 3 | 5 | 5 | 5 | 5 | 5 | 5 |
| COc1ccncc1-c1cnc(N2C(=O)N(C)C(C)C2O)cc1C(F)(F)F (stereo not drawn) [Compound A23] | 2 | 3 | 5 | 2 | 3 | 1 | 5 | 4 | 5 | 2 | 4 | 2 |
| Cc1ccc(-c2cnc(N3C(=O)N(C)C(C)C3O)cc2C(F)(F)F)cn1 (stereo not drawn) [Compound A24] | 5 | 4 | 5 | 5 | 4 | 3 | 5 | 5 | 5 | 5 | 5 | 4 |
| CC1C(O)N(c2cc(C(F)(F)F)c(I)cn2)C(=O)N1C (stereo not drawn) [Compound A25, 5-hydroxy-1-[5-iodo-4-(trifluoromethyl)-2-pyridyl]-3,4-dimethyl-imidazolidin-2-one] | 5 | 4 | 5 | 5 | 4 | 2 | 5 | 5 | 5 | 5 | 5 | 5 |
| CCOC1C(O)N(c2cc(C(F)(F)F)ccn2)C(=O)N1CC (stereo not drawn) [Compound A29] | 5 | 1 | 5 | 1 | 2 | 1 | 5 | 4 | 5 | 4 | 3 | 2 |
| C=CCC1C(O)N(c2cc(C(F)(F)F)ccn2)C(=O)N1C (stereo not drawn) [Compound A32, 5-allyl-4-hydroxy-1-methyl-3-[4-(trifluoromethyl)-2-pyridyl]imidazolidin-2-one] | 5 | 4 | 5 | 5 | 4 | 2 | 5 | 5 | 5 | 5 | 5 | 2 |
| CN1C(=O)N(c2cc(C(F)(F)F)ccn2)C(O)C1C(F)(F)F (stereo not drawn) [Compound A33, 4-hydroxy-1-methyl-5-(trifluoromethyl)-3-[4-(trifluoromethyl)-2-pyridyl]imidazolidin-2-one] | 4 | 3 | 5 | 2 | 3 | 0 | 5 | 4 | 3 | 1 | 2 | 1 |
